SMILES strings stand for the structures. Residues, ends and D or L forms follow the SMILES beside them.

Holding throughout (set-up): species or system group A streptococcus
The subject of test [1] is type IIa Fc receptor (Mr 56,000; receptor for human IgG1, IgG2 and IgG4) of group A streptococcal strain 64/14/HRP. Description: Inhibition of 125I-labeled IgG1, IgG2, IgG4, pig or rabbit IgG binding to strain 64/14/HRP. Particulars: whole bacteria 64/14/HRP, 1.5 hr at 37° C.; for inhibition of binding of labeled human IgG1, IgG2 and IgG4 to the bacteria: varying concentrations, FIG. 8 panels A, B, D; for inhibition of binding of labeled pig or rabbit IgG to the bacteria: FIG. 9. The procedure: (§1) In the next series of experiments, the ability of the inhibitory dipeptides, glycyl-tyrosine and glycyl-histidine, were tested for their ability to inhibit the binding of each labeled human IgG subclass to the type II receptor-positive 64/14/HRP bacteria. Glycyl-glycine was also included as a negative control.
(§2) A standard number of group A streptococci was incubated for 1.5 hr. at 37° C. with 20,000 cpm of the approprimately ^125 I-labeled human IgG subclasses in the presence of varying concentrations of dipeptide. The bacteria were pelleted by centrifugations of 1000×g for 10 min. and washed twice with 3 ml of veronal buffered saline containing 0.01 M EDTA and 0.1% gelatin. The radioactivity associated with the bacteria was determined in an LKB autogamma counter. The cpm bound to the baterial pellet were expressed as percent of maximum cpm bound. See FIG. 8 wherein Panel A represents the results obtained from the binding of ^125 I IgG1. Panel B represents the results obtained from the binding of ^125 I IgG2. Panel C represents the results obtained from the binding of ^125 I IgG3. Panel D represents the results obtained from the binding of ^125 I IgG4.
In the next series of experiments the effect of histidine, glycyl-histidineor glycyl-tyrosine on the binding of labeled pig or rabbit IgG was tested.
A standard number of group A streptococci was incubated for 1.5 hr. at 37° C. with 20,000 cpm of the appropriately ^125 I-labeled species IgG in the presence of the indicated amounts of histidine. The bacteria were washed as described above. The cpm bound to the bacterial pellet were expressed as percent of maximum cpm bound. In FIG. 9, ( .circle.--.circle. ) represents ^125 I human IgG; ( -- ) represents ^125 I pig IgG; and ( -- ) represents rabbit IgG.

Test [2] relates to type II Fc receptor on group A streptococcal strain 64/14/HRP. Description: Inhibition of 125I-labeled IgG binding to type II Fc receptor-positive bacteria by dipeptides or histidine. Particulars: whole bacteria 64/14/HRP, 1.5 hr at 37° C., 20,000 cpm 125I human IgG; concentration range, see FIG. 7, FIG. 9. As for the experimental part: Staphylococcus aureus Cowan I served as the representative type I Fc receptor-positive strain. The group A streptococcal strain 64/14/HRP served as a representative type II Fc receptor-positive strain. The group C streptococcal strain 26RP66 served as a representative type III Fc receptor-positive strain. All strains were grown as stationary cultures in Todd Hewitt broth (Difco) for 18-24 hr at 37° C., harvested by centrifugation and washed in phosphate buffered saline (PBS), pH 7.2.
Glycyl-L-tyrosine, glycyl-L-histidine, glycyl-glycine, glycyl-DL-leucine, glycyl-DL-phenylalanine, and L-histidine were utilized in the tests.
The detection of Fc-reactive proteins on the surface of bacteria was determined by the ability of the bacteria to bind ^125 I-labeled IgG as follows: Briefly, a stock preparation of bacteria was standardized to bind approximately 75% of the 20,000 cpm of labeled IgG added at pH 7.0. Following standardization for the Fc receptor activity, aliquots of bacteria were incubated with ^125 I-labeled IgG and the indicated amount of the dipeptides for 1.5 hr. at 37° C. […] The radioactivity associated with the bacteria was determined in an LKB autogamma counter. The cpm bound to the bacterial pellet were expressed as percent of maximum cpm bound. […]
A standard number of Staphylococcus aureus Cowan strain ( -- ), group C streptococcal strain 26RP66 (.largecircle.--.largecircle.), or the group A streptococcal strain 64/14/HRP ( .circle.--.circle. ) was incubated for 1.5 hr. at 37° C. with 20,000 cpm of ^125 I labeled human IgG in the presence of the indicated amounts of dipeptide. […] The radioactivity associated with the bacteria was determined in an LKB autogamma counter. The cpm bound to the bacterial pellet were expressed as percent of maximum cpm bound.
A standard number of group A streptococci was incubated for 1.5 hr. at 37° C. with 20,000 cpm of the appropriately ^125 I-labeled species IgG in the presence of the indicated amounts of histidine. […] The cpm bound to the bacterial pellet were expressed as percent of maximum cpm bound. […]

For test [3], the system named is type IIb Fc receptor (Mr 38,000; IgG3-specific receptor) of group A streptococcal strain 64/14/HRP. Description: Inhibition of 125I-labeled human IgG3 binding to strain 64/14/HRP. The settings on record: whole bacteria 64/14/HRP, 1.5 hr at 37° C., varying concentrations; FIG. 8 panel C. The procedure:
as §1, §2

Take `NCC(=O)N[C@@H](Cc1c[nH]cn1)C(=O)O` [glycyl-histidine, glycyl-L-histidine] (H-Gly-His-OH): in test [1], the “inhibition of binding of labeled human IgG1, IgG2 and IgG4 to the bacteria” value (“inhibition … IgG2 and IgG4 to the bacteria” below) is reported as “efficiently inhibit”; the “inhibition of binding of labeled pig or rabbit IgG to the bacteria” value is “inhibited”. Moreover, in test [2], the “inhibition of binding of 125I-labeled human IgG to type II Fc receptor positive bacteria” value was “inhibition”. In addition, in test [3], the “inhibition of binding of labeled human IgG3 to the bacteria” value is listed as “minimal inhibition”.
Consider `NCC(=O)N[C@@H](Cc1ccc(O)cc1)C(=O)O` [glycyl-tyrosine, Glycyl-L-tyrosine] (H-Gly-Tyr-OH), for which, in test [1], the “inhibition … IgG2 and IgG4 to the bacteria” value is “efficiently inhibit”; the “inhibition of binding of labeled pig or rabbit IgG to the bacteria” value was “inhibited”. In test [2], the “inhibition of binding of 125I-labeled human IgG to type II Fc receptor positive bacteria” value is given as “inhibition”. For the same compound, the “inhibition of binding of labeled human IgG3 to the bacteria” value in test [3] was “minimal inhibition”.
Regarding `N[C@@H](Cc1c[nH]cn1)C(=O)O` [histidine, L-histidine], in test [1], the “inhibition … IgG2 and IgG4 to the bacteria” value is reported as “inhibited”; the “inhibition of binding of labeled pig or rabbit IgG to the bacteria” value is “inhibited”. The “inhibition of binding of 125I-labeled human IgG to type II Fc receptor positive bacteria” value in test [2] was “inhibited”. The “inhibition of binding of labeled human IgG3 to the bacteria” value in test [3] is on record as “minimal inhibition”.

Source of the values: patent US5082931A, “Type II bacterial Fc receptors” (University of Florida Research Foundation, Inc., priority 1989, dated 1992).
